From patent US9242981B2, “Fused pyrazole derivatives as novel ERK inhibitors” (Merck Sharp & Dohme Corp., priority 2010, dated 2016)
pIC50: −log10 of the molar value.

Biological target: Mouse ERK2 protein (Mus musculus (Mouse), UniProt P63085)
Assay: Coupled MEK1/ERK2 IMAP assay or Active ERK2 IMAP assay
Assay type: biochemical
Details: Table 1, class symbols, 30 μM ATP
Procedure: 14 μl of kinase buffer (10 mM Tris.HCl pH 7.2, 10 mM MgCl2, 0.01% Tween-20, 1 mM DTT) containing 0.4 ng unphosphorylated Mouse ERK2 protein is added to each well of a black 384-well assay plate. […] DMSO concentration during initial incubation is 6.7%. […] DMSO concentration during ERK activation was 4%. After one hour, reactions are terminated by addition of 60 μl IMAP detections beads in binding buffer (Molecular Devices). Binding is allowed to equilibrate for 30 minutes before reading the plate on an LJL Analyst Fluorescence Polarization plate reader.
Activated ERK2 activity was also determined in the IMAP assay format using the procedure outlined above. […] Reactions proceeded for 30 minutes before termination by addition of […] IMAP detection beads in binding buffer. Plates were read as above after 30 minute binding equilibration.

Mouse ERK2 protein, sequence (P63085 whole entry): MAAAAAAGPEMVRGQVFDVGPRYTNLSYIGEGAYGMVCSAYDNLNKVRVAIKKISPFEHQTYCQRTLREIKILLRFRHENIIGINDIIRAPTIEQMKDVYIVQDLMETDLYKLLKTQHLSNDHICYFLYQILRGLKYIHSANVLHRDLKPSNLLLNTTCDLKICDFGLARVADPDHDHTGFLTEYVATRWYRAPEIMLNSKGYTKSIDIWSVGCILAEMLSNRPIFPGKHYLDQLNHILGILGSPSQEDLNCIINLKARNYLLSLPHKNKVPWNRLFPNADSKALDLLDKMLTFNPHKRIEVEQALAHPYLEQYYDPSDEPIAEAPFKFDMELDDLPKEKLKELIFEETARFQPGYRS

| Structure (SMILES) | pIC50 |
| --- | --- |
| Nc1nc(CC(=O)N2CCc3[nH]nc(-c4ccncc4)c3C2)cs1 [Compound 5, 5-[(2-amino-4-thiazolyl)-acetyl]-4,5,6,7-tetrahydro-3-(4-pyridinyl)-1H-pyrazolo[4,3-c]pyridine] | 4.00 to 6.00 |
| Cn1cnc(CC(=O)N2CCc3[nH]nc(-c4ccncc4)c3C2)c1 [Compound 6, 4,5,6,7-tetrahydro-5-[(1-methyl-1H-imidazol-4-yl)acetyl]-3-(4-pyridinyl)-1H-pyrazolo[4,3-c]pyridine] | 4.00 to 6.00 |
| O=C(Cc1cccs1)N1CCc2[nH]nc(-c3ccncc3)c2C1 [Compound 7, 4,5,6,7-tetrahydro-3-(4-pyridinyl)-5-(2-thienylacetyl)-1H-pyrazolo[4,3-c]pyridine] | 4.00 to 6.00 |
| O=C(Cc1ccccc1Cl)N1CCc2[nH]nc(-c3ccncc3)c2C1 [Compound 8, 5-[(2-chlorophenyl)acetyl]-4,5,6,7-tetrahydro-3-(4-pyridinyl)-1H-pyrazolo[4,3-c]pyridine] | 6.00 to 7.00 |
| O=C(Cc1cccc(Br)c1)N1CCc2[nH]nc(-c3ccncc3)c2C1 [Compound 9, 5-[(3-bromophenyl)acetyl]-4,5,6,7-tetrahydro-3-(4-pyridinyl)-1H-pyrazolo[4,3-c]pyridine] | 6.00 to 7.00 |
| COc1ccccc1CC(=O)N1CCc2[nH]nc(-c3ccncc3)c2C1 [Compound 10, 4,5,6,7-tetrahydro-5-[(2-methoxyphenyl)acetyl]-3-(4-pyridinyl)-1H-pyrazolo[4,3-c]pyridine] | 4.00 to 6.00 |
| Cc1nc(CC(=O)N2CCc3[nH]nc(-c4ccncc4)c3C2)c(C)s1 [Compound 11, 5-[(2,5-dimethyl-4-thiazolyl)acetyl]-4,5,6,7-tetrahydro-3-(4-pyridinyl)-1H-pyrazolo[4,3-c]pyridine] | 4.00 to 6.00 |
| CC1(C(=O)Nc2ccccc2OCc2cccnc2)CCc2[nH]nc(-c3ccncc3)c2C1 (stereo not shown) [Compound 14, 4,5,6,7-tetrahydro-5-methyl-3-(4-pyridinyl)-N-[2-(3-pyridinylmethoxy)phenyl]-1H-indazole-5-carboxamide] | 4.00 to 6.00 |
| COc1ccccc1NC(=O)C1(C)CCc2[nH]nc(-c3ccncc3)c2C1 (stereo not shown) [Compound 15, 4,5,6,7-tetrahydro-N-(2-methoxyphenyl)-5-methyl-3-(4-pyridinyl)-1H-indazole-5-carboxamide] | 4.00 to 6.00 |
| CC(C)C(Cn1ccnc1)NC(=O)C1(C)CCc2[nH]nc(-c3ccncc3)c2C1 (stereo not shown) [Compound 16, 4,5,6,7-tetrahydro-N-[1-(1H-imidazoL-1-ylmethyl)-2-methylpropyl]-5-methyl-3-(4-pyridinyl)-1H-indazole-5-carboxamide] | 4.00 to 6.00 |
| CC1(C(=O)Nc2ccccc2OC(F)(F)F)CCc2[nH]nc(-c3ccncc3)c2C1 (stereo not shown) [Compound 17, 4,5,6,7-tetrahydro-5-methyl-3-(4-pyridinyl)-N-[2-(trifluoromethoxy)phenyl]-1H-indazole-5-carboxamide] | 4.00 to 6.00 |
| COc1ncccc1NC(=O)C1(C)CCc2[nH]nc(-c3ccncc3)c2C1 (stereo not shown) [Compound 18, 4,5,6,7-tetrahydro-N-(2-methoxy-3-pyridinyl)-5-methyl-3-(4-pyridinyl)-1H-indazole-5-carboxamide] | 4.00 to 6.00 |
| CN(C)CCOc1ccccc1NC(=O)C1(C)CCc2[nH]nc(-c3ccncc3)c2C1 (stereo not shown) [Compound 19, N-[2-[2-(dimethylamino)-ethoxy]phenyl]-4,5,6,7-tetrahydro-5-methyl-3-(4-pyridinyl)-1H-indazole-5-carboxamide] | 4.00 to 6.00 |
| CC1(C(=O)Nc2ccccc2OCC2CCCO2)CCc2[nH]nc(-c3ccncc3)c2C1 (stereo not shown) [Compound 20, 4,5,6,7-tetrahydro-5-methyl-3-(4-pyridinyl]-N-[2 [(tetrahydro-2-furanyl)-methoxy]phenyl]-1H-indazole-5-carboxamide] | 4.00 to 6.00 |
| CC1(C(=O)Nc2ccccc2OCCN2CCCCC2)CCc2[nH]nc(-c3ccncc3)c2C1 (stereo not shown) [Compound 21, 4,5,6,7-tetrahydro-5-methyl-N-[2-[2-(1-piperidinyl)ethoxy]-phenyl]-3-(4-pyridinyl)-1H-indazole-5-carboxamide] | 4.00 to 6.00 |
| CN(C)c1ccc(CC(=O)N2CCc3[nH]nc(-c4ccncc4)c3C2)cc1 [Compound 22, 5[[4-(dimethylamino)-phenyl]acetyl]-4,5,6,7-tetrahydro-3-(4-pyridinyl)-1H-pyrazolo[4,3-c]pyridine] | 6.00 to 7.00 |
| COc1ccc(OC)c(CC(=O)N2CCc3[nH]nc(-c4ccncc4)c3C2)c1 [Compound 23, 5-[(2,5-dimethoxyphenyl)-acetyl]-4,5,6,7-tetrahydro-3-(4-pyridinyl)-1H-pyrazolo[4,3-c]pyridine] | 6.00 to 7.00 |
| O=C(Cc1ccccc1F)N1CCc2[nH]nc(-c3ccncc3)c2C1 [Compound 24, 5-[(2-fluorophenyl)acetyl]-4,5,6,7-tetrahydro-3-(4-pyridinyl)-1H-pyrazolo[4,3-c]pyridine] | 6.00 to 7.00 |
| O=C(Cc1cccnc1)N1CCc2[nH]nc(-c3ccncc3)c2C1 [Compound 25, 4,5,6,7-tetrahydro-3-(4-pyridinyl)-5-(3-pyridinylacetyl)-1H-pyrazolo[4,3-c]pyridine] | 6.00 to 7.00 |
| O=C(Cc1ccccc1C(F)(F)F)N1CCc2[nH]nc(-c3ccncc3)c2C1 [Compound 26] | 6.00 to 7.00 |
| O=C(Cc1c(F)cccc1Cl)N1CCc2[nH]nc(-c3ccncc3)c2C1 [Compound 27, 5-[(2-chloro-6-fluorophenyl)acetyl]-4,5,6,7-tetrahydro-3-(4-pyridinyl)-1H-pyrazolo[4,3-c]pyridine] | 6.00 to 7.00 |
| O=C(N1CCc2[nH]nc(-c3ccncc3)c2C1)C1(c2ccc(Cl)cc2Cl)CC1 [Compound 28, 5-[[1-(2,4-dichlorophenyl)-cylcopropyl]carbonyl]-4,5,6,7-tetrahydro-3-(4-pyridinyl)-1H-pyrazolo[4,3-c]pyridine] | 6.00 to 7.00 |
| O=C(Cc1ccccc1Oc1ccccc1)N1CCc2[nH]nc(-c3ccncc3)c2C1 [Compound 29, 4,5,6,7-tetrahydro-5-[(2-phenoxyphenyl)acetyl]-3-(4-pyridinyl)-1H-pyrazol[4,3-c]pyridine] | 6.00 to 7.00 |

Continued, values first:

| pIC50 | Structure (SMILES) |
| --- | --- |
| 6.00 to 7.00 | O=C(Cc1ccccn1)N1CCc2[nH]nc(-c3ccncc3)c2C1 [Compound 30, 4,5,6,7-tetrahydro-3-(4-pyridinyl)-5-(2-pyridinylacetyl)-1H-pyrazolo[4,3-c]pyridine] |
| 6.00 to 7.00 | CS(=O)(=O)c1cccc(CC(=O)N2CCc3[nH]nc(-c4ccncc4)c3C2)c1 [Compound 31] |
| 6.00 to 7.00 | O=C(Cc1ccc(-c2ccccc2)cc1)N1CCc2[nH]nc(-c3ccncc3)c2C1 [Compound 32, 5-([1,1′-biphenyl]-4-ylacetyl)-4,5,6,7-tetrahydro-3-(4-pyridinyl)-1H-pyrazolo[4,3-c]pyridine] |
| 6.00 to 7.00 | O=C(Cc1ccccc1-c1cccnc1)N1CCc2[nH]nc(-c3ccncc3)c2C1 [Compound 33, 4,5,6,7-tetrahydro-3-(4-pyridinyl)-5-[[2-(3-pyridinyl)phenyl]acetyl]-1H-pyrazolo[4,3-c]pyridine] |
| 4.00 to 6.00 | O=C(C(CO)c1ccccc1)N1CCc2[nH]nc(-c3ccncc3)c2C1 (stereo not drawn) [Compound 38, 1,4,6,7-tetrahydro-gamma-oxo-beta-phenyl-3-(4-pyridinyl)-5H-pyrazolo[4,3-c]pyridine-5-propanol] |
| 4.00 to 6.00 | O=C(C1CCCc2ccccc21)N1CCc2[nH]nc(-c3ccncc3)c2C1 (stereo not shown) [Compound 39, 4,5,6,7-tetrahydro-3-(4-pyridinyl)-5-[(1,2,3,4-tetrahydro-1-naphthalenyl)carbonyl]-1H-pyrazolo[4,3-c]pyridine] |
| 4.00 to 6.00 | CC(C(=O)N1CCc2[nH]nc(-c3ccncc3)c2C1)c1ccccc1 (stereo not shown) [Compound 40, 4,5,6,7-tetrahydro-5-(1-oxo-2-phenylpropyl)-3-(4-pyridinyl)-1H-pyrazolo[4,3-c]pyridine] |
| 4.00 to 6.00 | CC(C(=O)N1CCc2[nH]nc(-c3ccncc3)c2C1)c1ccccc1Cl (stereo not shown) [Compound 41, 5-[2-(2-chlorophenyl)-1-oxopropyl]-4,5,6,7-tetrahydro-3-(4-pyridinyl)-1H-pyrazolo[4,3-c]pyridine] |
| 4.00 to 6.00 | CCn1cc(Cl)c(NC(=O)N2CCc3[nH]nc(-c4ccncc4)c3C2)n1 [Compound 42, N-(4-chloro-1-ethyl-1H-pyrazol-3-yl)-1,4,6,7-tetrahydro-3-(4-pyridinyl)-5H-pyrazolo[4,3-c]pyridine-5-carboxamide] |
| > 7.70 | O=C(NC1CNCC(c2ccccc2)C1)N1CCc2[nH]nc(-c3ccncc3)c2C1 (stereo not shown) [Compound 47, 1,4,6,7-tetrahydro-N-(5-phenyl-3-piperidinyl)-3-(4-pyridinyl)-5H-pyrazolo[4,3-c]pyridine-5-carboxamide] |
| > 7.70 | CN1CC(NC(=O)N2CCc3[nH]nc(-c4ccncc4)c3C2)CC(c2ccccc2)C1 (stereo not shown) [Compound 49, 1,4,6,7-tetrahydro-N-(1-methyl-5-phenyl-3-piperidinyl)-3-(4-pyridinyl)-5H-pyrazolo[4,3-c]pyridine-5-carboxamide] |
| 6.00 to 7.00 | O=C(CC1CCCNC1)N1CCc2[nH]nc(-c3ccncc3)c2C1 (stereo not shown) [Compound 51, 4,5,6,7-tetrahydro-5-(3-piperidinylacetyl)-3-(4-pyridinyl)-1H-pyrazolo[4,3-c]pyridine] |
| 7.00 to 7.68 | CC1CC(NC(=O)N2CCc3[nH]nc(-c4ccncc4)c3C2)CN(Cc2ccccc2F)C1 (stereo not shown) [Compound 52, N-[1-[(2-fluorophenyl)-methyl]-5-methyl-3-piperidinyl]-1,4,6,7-tetrahydro-3-(4-pyridinyl)-5H-pyrazolo[4,3-c]pyridine-5-carboxamide] |
| 7.00 to 7.68 | O=C(N[C@@H]1CCCN(Cc2nccs2)C1)N1CCc2[nH]nc(-c3ccncc3)c2C1 [Compound 55, 1,4,6,7-tetrahydro-3-(4-pyridinyl)-N-[1-(2-thiazolylmethyl)-3(R)-piperidinyl]-5H-pyrazolo[4,3-c]pyridine-5-carboxamide] |
